This is an account of results in doi:10.1101/208439v1 (biorxiv, 2017).

Among the targets are SUV39H2 (Homo sapiens, UniProt Q9H5I1); DNMT3a (Homo sapiens, UniProt Q9Y6K1); DNMT3b/3L (Homo sapiens, UniProt Q9UBC3); PRMT3 (Homo sapiens, UniProt O60678).
Common to all, as to test: biochemical
In another assay the target is T1, SMYD1 (Homo sapiens, UniProt Q8NB12).
T1 sequence (Q8NB12 1-490): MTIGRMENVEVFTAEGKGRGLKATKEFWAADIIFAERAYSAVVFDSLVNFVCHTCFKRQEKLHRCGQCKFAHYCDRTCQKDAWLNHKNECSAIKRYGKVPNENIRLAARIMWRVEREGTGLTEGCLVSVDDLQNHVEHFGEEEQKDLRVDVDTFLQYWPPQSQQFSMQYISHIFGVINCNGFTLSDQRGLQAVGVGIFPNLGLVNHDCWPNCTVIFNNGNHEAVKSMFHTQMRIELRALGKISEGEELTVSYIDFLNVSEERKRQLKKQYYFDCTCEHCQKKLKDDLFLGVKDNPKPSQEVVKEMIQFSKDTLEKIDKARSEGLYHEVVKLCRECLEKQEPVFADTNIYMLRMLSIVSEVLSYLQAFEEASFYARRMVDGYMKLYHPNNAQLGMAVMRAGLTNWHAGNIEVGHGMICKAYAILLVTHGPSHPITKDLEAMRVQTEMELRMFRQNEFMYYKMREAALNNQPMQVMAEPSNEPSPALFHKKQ

A further assay addresses MLL1 Complex (Homo sapiens, UniProt Q03164). Set-up: gene KMT2A.
The next assay concerns the target SET1b Complex (Homo sapiens, UniProt Q9UPS6). Details: gene SETD1B.
Another assay deals with MLL2 Complex (Homo sapiens, UniProt O14686). Details: gene KMT2D.
For a further assay, the target named is T2, GLP (Homo sapiens, UniProt Q9H9B1).
T2 construct: gene EHMT1
T2 sequence (Q9H9B1 1-1298): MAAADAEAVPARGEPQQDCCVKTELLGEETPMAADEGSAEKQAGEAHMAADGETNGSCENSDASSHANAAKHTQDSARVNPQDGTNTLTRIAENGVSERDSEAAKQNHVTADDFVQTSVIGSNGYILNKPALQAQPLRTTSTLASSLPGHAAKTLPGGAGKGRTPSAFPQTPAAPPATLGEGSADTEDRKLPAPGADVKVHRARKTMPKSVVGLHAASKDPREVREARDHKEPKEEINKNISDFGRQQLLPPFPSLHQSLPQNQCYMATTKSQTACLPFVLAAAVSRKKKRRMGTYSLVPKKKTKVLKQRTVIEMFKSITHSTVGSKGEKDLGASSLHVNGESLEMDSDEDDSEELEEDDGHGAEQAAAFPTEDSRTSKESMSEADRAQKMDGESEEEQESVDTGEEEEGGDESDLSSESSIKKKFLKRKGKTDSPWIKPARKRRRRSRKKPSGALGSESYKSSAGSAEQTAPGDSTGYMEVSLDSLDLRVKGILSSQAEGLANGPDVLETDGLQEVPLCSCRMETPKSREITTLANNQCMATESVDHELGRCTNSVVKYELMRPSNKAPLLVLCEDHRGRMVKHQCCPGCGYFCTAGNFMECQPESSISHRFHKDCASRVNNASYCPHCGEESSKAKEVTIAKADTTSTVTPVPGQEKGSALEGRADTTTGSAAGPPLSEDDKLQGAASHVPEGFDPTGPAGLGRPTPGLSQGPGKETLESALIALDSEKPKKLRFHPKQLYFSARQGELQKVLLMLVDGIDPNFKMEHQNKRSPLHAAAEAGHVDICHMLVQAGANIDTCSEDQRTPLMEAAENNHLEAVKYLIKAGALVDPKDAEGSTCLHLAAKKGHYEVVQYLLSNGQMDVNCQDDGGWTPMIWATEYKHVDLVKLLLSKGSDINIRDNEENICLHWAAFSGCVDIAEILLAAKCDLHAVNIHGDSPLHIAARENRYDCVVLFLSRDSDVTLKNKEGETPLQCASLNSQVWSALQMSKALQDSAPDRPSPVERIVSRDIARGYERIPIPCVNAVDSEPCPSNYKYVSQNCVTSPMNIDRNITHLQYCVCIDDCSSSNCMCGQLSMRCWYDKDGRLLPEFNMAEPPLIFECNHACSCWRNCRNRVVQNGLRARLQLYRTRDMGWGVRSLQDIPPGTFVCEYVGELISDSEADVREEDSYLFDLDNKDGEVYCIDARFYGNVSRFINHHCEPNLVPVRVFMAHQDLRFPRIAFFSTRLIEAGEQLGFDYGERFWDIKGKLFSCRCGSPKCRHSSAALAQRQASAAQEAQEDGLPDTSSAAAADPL

The next assay has as its target MLL3 Complex (Homo sapiens, UniProt Q8NEZ4). Details: gene KMT2C.
The next assay deals with T3, SETD2 (Homo sapiens, UniProt Q9BYW2).
T3 sequence (Q9BYW2 1434-1711): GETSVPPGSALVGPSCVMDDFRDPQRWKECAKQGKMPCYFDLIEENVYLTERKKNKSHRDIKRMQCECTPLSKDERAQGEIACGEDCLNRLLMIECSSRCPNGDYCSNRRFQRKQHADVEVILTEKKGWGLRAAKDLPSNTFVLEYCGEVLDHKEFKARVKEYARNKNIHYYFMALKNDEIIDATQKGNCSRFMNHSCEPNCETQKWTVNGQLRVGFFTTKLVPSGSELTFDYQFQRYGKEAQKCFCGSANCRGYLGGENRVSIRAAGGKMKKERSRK

The target of another assay is T4, SET7/9 (Homo sapiens, UniProt Q8WTS6).
T4 construct: gene SETD7
T4 sequence (Q8WTS6 1-366): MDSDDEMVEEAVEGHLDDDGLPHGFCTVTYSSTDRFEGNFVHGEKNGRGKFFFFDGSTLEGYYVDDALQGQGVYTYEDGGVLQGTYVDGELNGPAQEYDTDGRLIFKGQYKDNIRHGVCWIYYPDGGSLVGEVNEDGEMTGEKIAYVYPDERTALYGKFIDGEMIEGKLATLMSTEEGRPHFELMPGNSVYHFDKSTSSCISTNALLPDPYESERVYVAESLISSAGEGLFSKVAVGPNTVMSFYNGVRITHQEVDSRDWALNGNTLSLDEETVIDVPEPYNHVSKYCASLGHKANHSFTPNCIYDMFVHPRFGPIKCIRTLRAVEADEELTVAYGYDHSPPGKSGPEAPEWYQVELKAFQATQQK

For the next assay, the target named is MLL4 Complex (Homo sapiens, UniProt Q9UMN6). Details: gene KMT2B.

DNMT3a, sequence (Q9Y6K1 whole entry, looked up): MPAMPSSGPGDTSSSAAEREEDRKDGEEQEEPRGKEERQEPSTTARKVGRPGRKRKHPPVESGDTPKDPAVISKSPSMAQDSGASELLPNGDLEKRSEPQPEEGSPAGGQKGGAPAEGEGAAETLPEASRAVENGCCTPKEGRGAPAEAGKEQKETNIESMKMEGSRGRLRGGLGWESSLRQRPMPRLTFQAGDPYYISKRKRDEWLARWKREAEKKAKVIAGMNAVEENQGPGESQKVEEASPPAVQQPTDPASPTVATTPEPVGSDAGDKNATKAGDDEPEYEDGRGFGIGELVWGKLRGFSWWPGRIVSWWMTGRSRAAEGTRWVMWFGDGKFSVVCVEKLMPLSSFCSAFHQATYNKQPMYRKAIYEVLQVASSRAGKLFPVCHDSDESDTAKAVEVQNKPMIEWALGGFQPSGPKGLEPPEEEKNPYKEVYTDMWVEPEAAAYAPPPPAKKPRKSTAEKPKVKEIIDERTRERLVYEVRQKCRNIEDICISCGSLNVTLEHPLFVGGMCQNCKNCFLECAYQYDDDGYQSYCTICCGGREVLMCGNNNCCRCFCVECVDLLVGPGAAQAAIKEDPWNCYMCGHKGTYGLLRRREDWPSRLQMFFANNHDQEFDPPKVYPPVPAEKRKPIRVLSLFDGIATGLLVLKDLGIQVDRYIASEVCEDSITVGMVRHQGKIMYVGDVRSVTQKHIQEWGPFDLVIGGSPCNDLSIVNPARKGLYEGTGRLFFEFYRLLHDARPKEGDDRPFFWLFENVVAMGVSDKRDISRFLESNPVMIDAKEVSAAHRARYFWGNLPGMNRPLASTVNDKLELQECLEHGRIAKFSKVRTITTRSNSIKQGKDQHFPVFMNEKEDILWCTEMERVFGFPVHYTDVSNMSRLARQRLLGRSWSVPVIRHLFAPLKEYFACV
MLL1 Complex, sequence (Q03164 whole entry, looked up, one chain of several): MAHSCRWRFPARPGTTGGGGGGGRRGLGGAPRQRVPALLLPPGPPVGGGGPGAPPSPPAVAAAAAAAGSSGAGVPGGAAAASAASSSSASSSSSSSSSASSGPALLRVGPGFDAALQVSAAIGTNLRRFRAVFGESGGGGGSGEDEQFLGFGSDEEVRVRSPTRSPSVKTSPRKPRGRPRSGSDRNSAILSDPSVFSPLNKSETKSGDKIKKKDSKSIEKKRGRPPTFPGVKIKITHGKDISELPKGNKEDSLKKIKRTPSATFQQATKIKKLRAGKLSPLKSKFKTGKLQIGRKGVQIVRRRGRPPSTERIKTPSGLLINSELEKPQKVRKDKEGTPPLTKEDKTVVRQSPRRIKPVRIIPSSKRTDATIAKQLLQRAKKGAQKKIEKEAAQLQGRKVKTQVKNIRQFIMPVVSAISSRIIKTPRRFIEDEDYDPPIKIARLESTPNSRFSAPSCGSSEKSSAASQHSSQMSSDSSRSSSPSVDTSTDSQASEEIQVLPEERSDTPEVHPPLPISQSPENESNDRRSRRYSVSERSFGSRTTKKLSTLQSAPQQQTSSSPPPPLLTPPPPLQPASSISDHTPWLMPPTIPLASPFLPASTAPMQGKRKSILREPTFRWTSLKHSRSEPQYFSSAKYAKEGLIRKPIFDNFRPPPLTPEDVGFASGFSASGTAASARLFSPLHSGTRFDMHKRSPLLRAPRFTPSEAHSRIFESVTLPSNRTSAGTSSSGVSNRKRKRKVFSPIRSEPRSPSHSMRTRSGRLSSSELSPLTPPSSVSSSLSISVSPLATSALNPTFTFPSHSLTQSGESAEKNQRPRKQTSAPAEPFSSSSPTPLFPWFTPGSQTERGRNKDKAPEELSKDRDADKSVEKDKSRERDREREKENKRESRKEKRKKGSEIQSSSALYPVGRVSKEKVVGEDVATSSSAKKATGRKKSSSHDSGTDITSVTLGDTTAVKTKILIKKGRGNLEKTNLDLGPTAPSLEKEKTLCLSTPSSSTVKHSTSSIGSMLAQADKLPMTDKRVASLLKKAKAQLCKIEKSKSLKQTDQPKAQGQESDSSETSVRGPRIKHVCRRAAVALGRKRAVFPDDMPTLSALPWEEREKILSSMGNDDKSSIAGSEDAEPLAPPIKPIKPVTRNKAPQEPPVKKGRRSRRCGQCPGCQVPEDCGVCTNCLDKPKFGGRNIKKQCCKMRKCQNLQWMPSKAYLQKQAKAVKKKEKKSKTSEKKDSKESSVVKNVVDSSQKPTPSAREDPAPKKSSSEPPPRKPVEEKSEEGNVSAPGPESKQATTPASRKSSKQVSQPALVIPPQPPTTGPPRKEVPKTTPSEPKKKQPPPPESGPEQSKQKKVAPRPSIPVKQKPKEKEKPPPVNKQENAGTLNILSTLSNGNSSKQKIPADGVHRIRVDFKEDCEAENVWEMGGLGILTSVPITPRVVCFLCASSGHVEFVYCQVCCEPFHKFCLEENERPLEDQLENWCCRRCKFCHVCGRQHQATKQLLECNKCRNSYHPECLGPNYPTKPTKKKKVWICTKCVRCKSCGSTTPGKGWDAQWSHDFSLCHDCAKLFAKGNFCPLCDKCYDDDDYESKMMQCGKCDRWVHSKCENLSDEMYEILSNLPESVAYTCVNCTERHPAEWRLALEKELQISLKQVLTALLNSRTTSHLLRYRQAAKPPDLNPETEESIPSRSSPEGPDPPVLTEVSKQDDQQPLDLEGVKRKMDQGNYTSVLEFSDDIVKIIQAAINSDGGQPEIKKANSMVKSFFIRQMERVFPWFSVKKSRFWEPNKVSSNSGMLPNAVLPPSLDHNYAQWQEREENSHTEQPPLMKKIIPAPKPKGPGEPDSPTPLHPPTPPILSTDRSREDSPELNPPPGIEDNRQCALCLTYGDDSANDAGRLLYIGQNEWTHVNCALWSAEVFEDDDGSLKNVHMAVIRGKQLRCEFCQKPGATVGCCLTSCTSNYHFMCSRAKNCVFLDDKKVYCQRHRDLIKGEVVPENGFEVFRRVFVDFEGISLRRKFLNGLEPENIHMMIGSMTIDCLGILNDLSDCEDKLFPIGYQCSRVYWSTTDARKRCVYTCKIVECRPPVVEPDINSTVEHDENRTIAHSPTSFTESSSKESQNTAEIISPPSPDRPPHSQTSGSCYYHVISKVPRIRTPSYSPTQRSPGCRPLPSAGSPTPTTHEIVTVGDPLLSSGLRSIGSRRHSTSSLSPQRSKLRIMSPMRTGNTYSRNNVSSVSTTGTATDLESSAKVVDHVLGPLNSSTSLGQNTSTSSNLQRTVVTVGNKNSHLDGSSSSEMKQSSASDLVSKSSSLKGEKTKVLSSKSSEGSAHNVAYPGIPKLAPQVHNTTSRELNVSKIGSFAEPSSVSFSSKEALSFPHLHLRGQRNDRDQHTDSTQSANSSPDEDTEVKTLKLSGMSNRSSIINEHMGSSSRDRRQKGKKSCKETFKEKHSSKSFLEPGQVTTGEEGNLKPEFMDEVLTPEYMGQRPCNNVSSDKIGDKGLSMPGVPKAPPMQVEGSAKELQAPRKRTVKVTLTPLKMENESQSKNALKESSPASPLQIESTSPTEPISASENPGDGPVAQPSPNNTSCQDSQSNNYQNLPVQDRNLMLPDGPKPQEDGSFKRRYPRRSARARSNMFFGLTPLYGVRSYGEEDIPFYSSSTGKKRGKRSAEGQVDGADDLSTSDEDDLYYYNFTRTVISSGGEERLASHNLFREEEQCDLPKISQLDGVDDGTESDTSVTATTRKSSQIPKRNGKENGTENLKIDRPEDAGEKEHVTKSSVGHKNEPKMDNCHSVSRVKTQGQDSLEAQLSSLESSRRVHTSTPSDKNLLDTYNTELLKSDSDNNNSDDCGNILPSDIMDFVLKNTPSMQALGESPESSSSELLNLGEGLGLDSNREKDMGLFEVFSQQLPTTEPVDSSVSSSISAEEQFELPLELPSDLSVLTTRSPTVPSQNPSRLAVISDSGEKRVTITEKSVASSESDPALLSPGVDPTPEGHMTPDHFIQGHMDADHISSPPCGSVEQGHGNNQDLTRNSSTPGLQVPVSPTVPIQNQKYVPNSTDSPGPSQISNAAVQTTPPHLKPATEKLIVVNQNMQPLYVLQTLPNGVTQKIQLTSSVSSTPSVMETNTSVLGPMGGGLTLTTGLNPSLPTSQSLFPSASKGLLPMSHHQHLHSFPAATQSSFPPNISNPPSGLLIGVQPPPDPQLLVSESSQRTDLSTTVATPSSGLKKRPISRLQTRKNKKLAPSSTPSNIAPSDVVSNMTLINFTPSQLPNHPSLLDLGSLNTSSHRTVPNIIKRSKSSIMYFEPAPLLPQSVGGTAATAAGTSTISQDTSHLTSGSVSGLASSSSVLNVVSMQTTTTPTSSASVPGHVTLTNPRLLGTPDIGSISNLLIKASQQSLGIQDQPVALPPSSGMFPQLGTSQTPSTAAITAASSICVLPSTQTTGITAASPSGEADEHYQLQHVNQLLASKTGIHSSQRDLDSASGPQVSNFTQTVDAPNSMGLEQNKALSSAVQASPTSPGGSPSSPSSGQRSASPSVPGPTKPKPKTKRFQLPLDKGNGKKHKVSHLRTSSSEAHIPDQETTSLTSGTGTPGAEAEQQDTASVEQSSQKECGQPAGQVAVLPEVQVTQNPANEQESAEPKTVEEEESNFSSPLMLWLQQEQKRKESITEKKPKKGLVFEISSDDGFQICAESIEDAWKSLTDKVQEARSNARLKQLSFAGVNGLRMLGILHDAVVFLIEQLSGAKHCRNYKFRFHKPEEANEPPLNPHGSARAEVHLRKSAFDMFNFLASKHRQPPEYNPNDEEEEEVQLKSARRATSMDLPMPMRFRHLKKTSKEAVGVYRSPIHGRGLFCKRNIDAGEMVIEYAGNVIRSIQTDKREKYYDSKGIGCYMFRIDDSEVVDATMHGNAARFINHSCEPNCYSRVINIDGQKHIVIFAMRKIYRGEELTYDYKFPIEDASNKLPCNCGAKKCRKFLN

Take `Nc1ncnc2c1ncn2[C@@H]1O[C@H](CSCC[C@H](N)C(=O)O)[C@@H](O)[C@H]1O` [SAH]: the IC50 (commonly the point on the concentration scale where inhibition reaches its midpoint) against SUV39H2 came to 55 µM; against SMYD1 it was 37 µM; at MLL1 Complex, 0.55 µM; against SET1b Complex, 1.5 µM; at MLL2 Complex it was 27 µM; on GLP, 0.53 µM. The half-maximal inhibitory concentration (IC50) against DNMT3a came to 0.12 µM; on MLL3 Complex, 57 µM; against DNMT3b/3L, 0.012 µM; against SETD2, 5.2 µM; against PRMT3 it was 2.3 µM; at SET7/9 it was 83 µM. The compound further gave an IC50 at MLL4 Complex of 2.5 µM.
